# Laboratory results from US20080300298A1, “Honokiol Derivates For the Treatment of Proliferative Disorders” (priority 2005, published 2008).
# What was measured:
# Experiment in all cases: APO2.7 staining
# Type in all cases: cell-based, human
# [1] = test system: MM.1S cells; conditions: 10 ug/ml, 24 h
# Experimental: (§1) Assessment of HNK-induced cytotoxicity against patient MM cells: […] A CD38^high fraction enriched for MM cells was determined in side and forward scatter panel in each case. The expression of CD138 on gated cells was also evaluated. After HNK-treatment for 48 h, cells were harvested and percentage of CD38^high cells with or without HNK-treatment was evaluated. Cell cycle analysis: MM cells cultured with HNK were harvested, fixed with 70% ethanol, and pretreated with 250 μg/mL of RNAse (Sigma, St Louis, Mo.). Cells were stained with propidium iodide (PI; 50 μg/mL; Sigma, St Louis, Mo.), and cell cycle profile was determined by using the program M software on an EPICS XL flow cytometer (Beckman Coulter, Hialeah, Fla.). Detection of apoptosis and caspase-3 activity: TdT-mediated d-UTP nick end labeling (TUNEL) assay (MBL, Nagoya, Japan) and APO 2.7 staining (Immunotech, Marseille, France) were used to determine apoptosis. In brief, cells were fixed and permeabilzed by 4% paraformaldehyde and 70% ethanol, respectively, and incubated with a mixture of FITC-dUTP and TdT for 1 h at 37° C. for TUNEL assay. For detection of mitochondrial membrane protein 7A6 expression on apoptotic cells, cells were incubated with APO 2.7 reagent for 20 minutes. Fluorescence intensity of TUNEL and APO 2.7 staining was determined using on EPICS XL flow cytometer. Cytotoxicity was determined by trypan blue exclusion assay. […] Cell growth and induction of apoptosis were determined both by colorimetric assay and now cytometric detection of APO2.7 after 48 h treatment. […] Proliferation of MM cells was then assessed by [^3H]-thymidine uptake. […] DNA synthesis was measured by [^3H]-thymidine uptake. […] Angiogenesis assay: The anti-angiogenic effect of HNK was determined using an In Vitro Angiogenesis Assay Kit (Chemicon, Temecula, Calif.). […] After 6 h, tube formation by endothelial cells was evaluated. Direct toxicity of HNK against HUVEC was determined by calorimetric assay. […]
# [2] = test system: RPM18226 cells; conditions: RPM18226, 10 ug/ml, 24 h
# Experimental: as §1
# [3] = test system: normal PBMNCs; conditions: 15 ug/ml, 48 h, n=3
# Experimental: as §1
structure (smiles),measurement,setting,value
"C=CCc1ccc(O)c(-c2ccc(O)c(CC=C)c2)c1 [HNK, Honokiol]",APO2.7 positive cells,[1],21.7±3.4%
same,APO2.7 positive cells,[2],32.9±0.6%
same,APO2.7 positive cells in normal PBMNCs,[3],did not induce APO2.7 positive cells
